Data as given in PubChem BioAssay AID1919014 (Molecular Pharmacology Branch, DTP, NCI, 2023).
Several values for one entry are separate records, joined by “and”; a condition that tells them apart may be missing. Identical values can stand only once. Each block holds one compound with its values, some of them ahead of it.

Test system: NCI-H1341 complex spheroids, percent test/control
Experiment: Anticancer human tumor NCI-H1341 cell line growth inhibition [AhR];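 also: spheroids exposed to agents for seven days before readout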
Conditions: for viability, T/C: stronger effect = lower value
In short: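 Spheroids combined tumor cells with HUVEC endothelial cells and human MSCs as stroma. AhR antagonists were paired with standard or investigational drugs, each dosed in half-log steps down from near clinical Cmax, or from 10 microM where Cmax was unknown.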

- IC50 (curve of first compound, second compound 0.1 µM): 4.61 nM
- IC50 (curve of first compound, second compound 0.316 µM): 4.3 nM
- IC50 (curve of first compound, second compound 1 µM): 4.31 nM
- IC50 (curve of first compound, second compound 3.16 µM): 3.55 nM
- IC50 (curve of first compound, second compound 10 µM): 3.81 nM
SMILES: CC(C)CC(NC(=O)C(Cc1ccccc1)NC(=O)c1cnccn1)B(O)O (stereo not drawn) + CC(CO)NC(=O)c1cc(-c2ccc(Cl)cc2)nn(-c2cnn(C)c2)c1=O
- viability, T/C (second compound 0.1 µM, first compound 0.000949 µM): 89.8%
- viability, T/C (second compound 0.1 µM, first compound 0.003 µM): 79.2%
- viability, T/C (second compound 0.1 µM, first compound 0.00949 µM): 0.86%
- viability, T/C (second compound 0.1 µM, first compound 0.03 µM): 0.08%
- viability, T/C (second compound 0.1 µM, first compound 0.0949 µM): 0.36%
- viability, T/C (second compound 0.1 µM, first compound 0.3 µM): 0.13%
- viability, T/C (second compound 0.316 µM, first compound 0.000949 µM): 88.1%
- viability, T/C (second compound 0.316 µM, first compound 0.003 µM): 72.6%
- viability, T/C (second compound 0.316 µM, first compound 0.00949 µM): 0.3%
- viability, T/C (second compound 0.316 µM, first compound 0.03 µM): 0.06%
- viability, T/C (second compound 0.316 µM, first compound 0.0949 µM): 0.04%
- viability, T/C (second compound 0.316 µM, first compound 0.3 µM): 0.68%
- viability, T/C (second compound 1 µM, first compound 0.000949 µM): 70.3%
- viability, T/C (second compound 1 µM, first compound 0.003 µM): 75%
- viability, T/C (second compound 1 µM, first compound 0.00949 µM): 0.31%
- viability, T/C (second compound 1 µM, first compound 0.03 µM): 0.09%
- viability, T/C (second compound 1 µM, first compound 0.0949 µM): 1.13%
- viability, T/C (second compound 1 µM, first compound 0.3 µM): 0.28%
- viability, T/C (second compound 3.16 µM, first compound 0.000949 µM): 86.3%
- viability, T/C (second compound 3.16 µM, first compound 0.003 µM): 58.4%
- viability, T/C (second compound 3.16 µM, first compound 0.00949 µM): 0.91%
- viability, T/C (second compound 3.16 µM, first compound 0.03 µM): 0.08%
- viability, T/C (second compound 3.16 µM, first compound 0.0949 µM): 0.98%
- viability, T/C (second compound 3.16 µM, first compound 0.3 µM): 0.6%
- viability, T/C (second compound 10 µM, first compound 0.000949 µM): 83.4%
- viability, T/C (second compound 10 µM, first compound 0.003 µM): 62.9%
- viability, T/C (second compound 10 µM, first compound 0.00949 µM): 1.02%
- viability, T/C (second compound 10 µM, first compound 0.03 µM): 0.15%
- viability, T/C (second compound 10 µM, first compound 0.0949 µM): 0.12%
- viability, T/C (second compound 10 µM, first compound 0.3 µM): 0.45%

- IC50 (curve of compound): > 10000 nM
SMILES: O=C(c1cc(Cc2n[nH]c(=O)c3ccccc23)ccc1F)N1CCN(C(=O)C2CC2)CC1
- viability, T/C (compound 0.0316 µM): 97.7% and 93.7% and 111%
- viability, T/C (compound 0.1 µM): 100% and 83.7% and 108%
- viability, T/C (compound 0.316 µM): 105% and 87.7% and 90.6%
- viability, T/C (compound 1 µM): 95.6% and 88% and 110%
- viability, T/C (compound 3.16 µM): 102% and 86.6% and 83.1%
- viability, T/C (compound 10 µM): 76.6% and 70.3% and 83.6%

SMILES: COc1cc(C2c3cc4c(cc3C(OC3OC5COC(C)OC5C(O)C3O)C3COC(=O)C23)OCO4)cc(OC)c1O (stereo not drawn)
- viability, T/C (compound 0.0316 µM): 98.7% and 93.7% and 88.8%
- viability, T/C (compound 0.1 µM): 86.3% and 90.8% and 80.8%
- viability, T/C (compound 0.316 µM): 75.5% and 77.2% and 57%
- viability, T/C (compound 1 µM): 44.2% and 51.9% and 53.8%
- viability, T/C (compound 3.16 µM): 35.1% and 45.4% and 52.8%
- viability, T/C (compound 10 µM): 35.9% and 30.7% and 53.1%
